These results are taken from patent US11427615B2, “Peptide compound and application thereof, and composition containing peptide compound” (XDCEXPLORER (SHANGHAI) CO., LTD., priority 2017, dated 2022).

pEC50: −log10 of the molar value. Non-standard residues stand in square brackets, D forms with d. Residues, ends and D or L forms follow the SMILES beside them. *: point of attachment. Phe(4-tBu) = CC(C)(C)c1ccc(C[C@H](N)C(=O)O)cc1; dPhe(2,4-Cl2) = N[C@H](Cc1ccc(Cl)cc1Cl)C(=O)O; Dnp = O=[N+]([O-])c1ccc(*)c([N+](=O)[O-])c1; Phe(4-Cl) = N[C@@H](Cc1ccc(Cl)cc1)C(=O)O; Phe(4-F) = N[C@@H](Cc1ccc(F)cc1)C(=O)O; Phe(4-Me) = Cc1ccc(C[C@H](N)C(=O)O)cc1; Pro(4,4-F2) = O=C(O)[C@@H]1CC(F)(F)CN1; Pro(4R-NH2) = N[C@H]1CN[C@H](C(=O)O)C1; dAla(2-furyl) = N[C@H](Cc1ccco1)C(=O)O; 2Nal = N[C@@H](Cc1ccc2ccccc2c1)C(=O)O; Arg(Me) = CNC(=N)NCCC[C@H](N)C(=O)O; Hyp = O=C(O)[C@@H]1C[C@@H](O)CN1; 2Pal = N[C@@H](Cc1ccccn1)C(=O)O; 3Pal = N[C@@H](Cc1cccnc1)C(=O)O; NMeL = CN[C@@H](CC(C)C)C(=O)O; Pip = O=C(O)[C@@H]1CCCCN1; Dap = NC[C@H](N)C(=O)O; azaGly = NNC(=O)O; βAla = NCCC(=O)O

T1 sequence (Q969F8 whole entry): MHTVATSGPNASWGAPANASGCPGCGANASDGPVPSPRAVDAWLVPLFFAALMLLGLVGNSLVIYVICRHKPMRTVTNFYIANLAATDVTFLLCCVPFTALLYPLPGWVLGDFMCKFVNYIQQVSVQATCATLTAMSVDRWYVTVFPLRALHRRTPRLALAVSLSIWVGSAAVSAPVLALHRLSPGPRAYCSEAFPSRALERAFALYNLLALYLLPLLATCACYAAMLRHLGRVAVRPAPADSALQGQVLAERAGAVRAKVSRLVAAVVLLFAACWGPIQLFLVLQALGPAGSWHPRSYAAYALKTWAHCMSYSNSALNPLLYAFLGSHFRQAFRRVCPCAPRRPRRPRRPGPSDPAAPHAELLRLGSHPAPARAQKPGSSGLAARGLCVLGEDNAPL

One assay addresses T1, human kiss1 receptor (GPR54) (Homo sapiens, UniProt Q969F8).
T1 construct: host or cells: NFAT-bla CHO-K1 cells (Chinese hamster ovary), purchased recombinant cell line
Put plainly: Kiss1 receptor (GPR54) binding activity of agonists, FRET detection in NFAT-bla CHO-K1 cells. It is filed as cell-based. As to conditions: GPR54; measured according to the method of effect Embodiment 1; preliminary data; read-out: Preliminary measurement data (GPR54) EC50.
`CNC(=N)NCCC[C@H](NC(=O)C(CC(C)C)C(=S)NCNC(=O)[C@H](Cc1ccccc1)NC(=O)[C@@H](NC(=O)[C@H](CC(N)=O)NC(=O)[C@@H]1C[C@@H](O)CN1C(=O)[C@@H](Cc1ccc(O)cc1)NC(C)=O)[C@@H](C)O)C(=O)N[C@@H](Cc1c[nH]c2ccccc12)C(N)=O` (single isomer, unassigned) [YA-254, Ac-(D-Tyr)-Hyp-Asn-Thr-Phe-ψ(NHCS)Gly-Leu-Arg(Me)-Trp-NH2]: the pEC50 is 10.52.
Regarding `CNC(=N)NCCC[C@H](NC(=O)C(CC(C)C)C(=S)NCNC(=O)[C@H](Cc1ccccc1)NC(=O)[C@@H](NC(=O)[C@H](CC(N)=O)NC(=O)[C@@H]1CC(F)(F)CN1C(=O)[C@@H](Cc1ccc(Cl)cc1Cl)NC(C)=O)[C@@H](C)O)C(=O)N[C@@H](Cc1c[nH]c2ccccc12)C(N)=O` (single isomer, unassigned) [YA-255, Ac-[D-Phe(2,4-DiCl)]-DiFluorPro-Asn-Thr-Phe-ψ(NHCS) Gly-Leu-Arg(Me)-Trp-NH2], the pEC50 was 10.55.
Take `CNC(=N)NCCC[C@H](NC(=O)C(CC(C)C)C(=O)NCNC(=O)[C@H](Cc1ccccc1)NC(=O)[C@@H](NC(=O)[C@H](CC(N)=O)NC(=O)[C@@H]1C[C@@H](O)CN1C(=O)[C@@H](Cc1ccc(O)cc1)NC(C)=O)[C@@H](C)O)C(=O)N[C@@H](Cc1c[nH]c2ccccc12)C(N)=O` (single isomer, unassigned) [YA-303, Ac-(D-Tyr)-Hyp-Asn-Thr-Phe-ψ(NHCO)Gly-Leu-Arg(Me)-Trp-NH2]: the pEC50 is 11.00.
For the compound `CC(=O)N[C@@H](Cc1ccc(O)cc1)C(=O)N[C@@H](CC(N)=O)C(=O)N[C@@H](Cc1c[nH]c2ccccc12)C(=O)N[C@@H](CC(N)=O)C(=O)N[C@@H](CO)C(=O)N[C@@H](Cc1ccccc1)C(=O)NCC(=O)N[C@@H](CC(C)C)C(=O)N[C@@H](CCCNC(=N)N)C(=O)N[C@@H](Cc1ccccc1)C(N)=O` [YA-2, Ac-Tyr-Asn-Trp-Asn-Ser-Phe-Gly-Leu-Arg-Phe-NH2], the pEC50 was 8.00.
On the same count and under the same terms, with `CNC(=N)NCCC[C@H](NC(=O)[C@H](CC(C)C)NC(=O)NNC(=O)[C@H](Cc1ccccc1)NC(=O)[C@@H](NC(=O)[C@H](CC(N)=O)NC(=O)[C@@H]1C[C@@H](O)CN1C(=O)[C@@H](Cc1ccc(Cl)cc1Cl)NC(C)=O)[C@@H](C)O)C(=O)N[C@@H](Cc1c[nH]c2ccccc12)C(N)=O` [YA-42, Ac-[D-Phe(2,4-DiCl)]-Hyp-Asn-Thr-Phe-azaGly-Leu-Arg(Me)-Trp-NH2] (Ac-[dPhe(2,4-Cl2)][Hyp]NTF[azaGly]L[Arg(Me)]W-NH2) the figure was 10.82; with `CNC(=N)NCCC[C@H](NC(=O)[C@H](CC(C)C)NC(=O)NNC(=O)[C@H](Cc1ccccc1)NC(=O)[C@@H](NC(=O)[C@H](CC(N)=O)NC(=O)[C@@H]1C[C@@H](O)CN1C(=O)[C@@H](Cc1ccco1)NC(C)=O)[C@@H](C)O)C(=O)N[C@@H](Cc1c[nH]c2ccccc12)C(N)=O` [YA-43, Ac-(D-2Fua)-Hyp-Asn-Thr-Phe-azaGly-Leu-Arg(Me)-Trp-NH2] (Ac-[dAla(2-furyl)][Hyp]NTF[azaGly]L[Arg(Me)]W-NH2), 10.02.
Still for that read-out and setting: with `CNC(=N)NCCC[C@H](NC(=O)[C@H](CC(C)C)NC(=O)NNC(=O)[C@H](Cc1ccccc1)NC(=O)[C@@H](NC(=O)[C@H](CC(N)=O)NC(=O)[C@@H]1C[C@@H](O)CN1C(=O)[C@H](Cc1ccccn1)NC(C)=O)[C@@H](C)O)C(=O)N[C@@H](Cc1c[nH]c2ccccc12)C(N)=O` [YA-68, Ac-2Pal-Hyp-Asn-Thr-Phe-azaGly-Leu-Arg(Me)-Trp-NH2] (Ac-[2Pal][Hyp]NTF[azaGly]L[Arg(Me)]W-NH2) the figure was 9.74; with `CNC(=N)NCCC[C@H](NC(=O)[C@H](CC(C)C)NC(=O)NNC(=O)[C@H](Cc1ccccc1)NC(=O)[C@@H](NC(=O)[C@H](CC(N)=O)NC(=O)[C@@H]1C[C@@H](O)CN1C(=O)[C@H](Cc1cccnc1)NC(C)=O)[C@@H](C)O)C(=O)N[C@@H](Cc1c[nH]c2ccccc12)C(N)=O` [YA-69, Ac-3Pal-Hyp-Asn-Thr-Phe-azaGly-Leu-Arg(Me)-Trp-NH2] (Ac-[3Pal][Hyp]NTF[azaGly]L[Arg(Me)]W-NH2), 9.52; with `CNC(=N)NCCC[C@H](NC(=O)[C@H](CC(C)C)NC(=O)NNC(=O)[C@H](Cc1ccccc1)NC(=O)[C@@H](NC(=O)[C@H](CC(N)=O)NC(=O)[C@@H]1C[C@@H](O)CN1C(=O)[C@H](Cc1ccc(F)cc1)NC(C)=O)[C@@H](C)O)C(=O)N[C@@H](Cc1c[nH]c2ccccc12)C(N)=O` [YA-71, Ac-Phe(4-F)-Hyp-Asn-Thr-Phe-azaGly-Leu-Arg(Me)-Trp-NH2] (Ac-[Phe(4-F)][Hyp]NTF[azaGly]L[Arg(Me)]W-NH2), 10.24.
On the same count and under the same terms, with `CNC(=N)NCCC[C@H](NC(=O)[C@H](CC(C)C)NC(=O)NNC(=O)[C@H](Cc1ccccc1)NC(=O)[C@@H](NC(=O)[C@H](CC(N)=O)NC(=O)[C@@H]1C[C@@H](O)CN1C(=O)[C@H](Cc1ccc(Cl)cc1)NC(C)=O)[C@@H](C)O)C(=O)N[C@@H](Cc1c[nH]c2ccccc12)C(N)=O` [YA-72, Ac-Phe(4-Cl)-Hyp-Asn-Thr-Phe-azaGly-Leu-Arg(Me)-Trp-NH2] (Ac-[Phe(4-Cl)][Hyp]NTF[azaGly]L[Arg(Me)]W-NH2) the figure was 8.26; with `CNC(=N)NCCC[C@H](NC(=O)[C@H](CC(C)C)NC(=O)NNC(=O)[C@H](Cc1ccccc1)NC(=O)[C@@H](NC(=O)[C@H](CC(N)=O)NC(=O)[C@@H]1C[C@@H](O)CN1C(=O)[C@H](Cc1ccc(OC)cc1)NC(C)=O)[C@@H](C)O)C(=O)N[C@@H](Cc1c[nH]c2ccccc12)C(N)=O` [YA-73, Ac-Tyr(Me)-Hyp-Asn-Thr-Phe-azaGly-Leu-Arg(Me)-Trp-NH2] (Ac-Y(Me)[Hyp]NTF[azaGly]L[Arg(Me)]W-NH2), 8.88; with `CNC(=N)NCCC[C@H](NC(=O)[C@H](CC(C)C)NC(=O)NNC(=O)[C@H](Cc1ccccc1)NC(=O)[C@@H](NC(=O)[C@H](CC(N)=O)NC(=O)[C@@H]1C[C@@H](O)CN1C(=O)[C@H](Cc1ccc(C)cc1)NC(C)=O)[C@@H](C)O)C(=O)N[C@@H](Cc1c[nH]c2ccccc12)C(N)=O` [YA-74, Ac-Phe(4-Me)-Hyp-Asn-Thr-Phe-azaGly-Leu-Arg(Me)-Trp-NH2] (Ac-[Phe(4-Me)][Hyp]NTF[azaGly]L[Arg(Me)]W-NH2), 9.04.
`CNC(=N)NCCC[C@H](NC(=O)[C@H](CC(C)C)NC(=O)NNC(=O)[C@H](Cc1ccccc1)NC(=O)[C@@H](NC(=O)[C@H](CC(N)=O)NC(=O)[C@@H]1C[C@@H](O)CN1C(=O)[C@H](Cc1ccc(C(C)(C)C)cc1)NC(C)=O)[C@@H](C)O)C(=O)N[C@@H](Cc1c[nH]c2ccccc12)C(N)=O` [YA-75, Ac-Phe(4-tBu)-Hyp-Asn-Thr-Phe-azaGly-Leu-Arg(Me)-Trp-NH2] (Ac-[Phe(4-tBu)][Hyp]NTF[azaGly]L[Arg(Me)]W-NH2): the negative-log EC50 (pEC50) was 7.73.
With `CNC(=N)NCCC[C@H](NC(=O)[C@H](CC(C)C)NC(=O)NNC(=O)[C@H](Cc1ccccc1)NC(=O)[C@@H](NC(=O)[C@H](CC(N)=O)NC(=O)[C@@H]1CC(F)(F)CN1C(=O)[C@@H](Cc1ccc(O)cc1)NC(C)=O)[C@@H](C)O)C(=O)N[C@@H](Cc1c[nH]c2ccccc12)C(N)=O` [YA-80, Ac-D-Tyr-Pro(diF)-Asn-Thr-Phe-azaGly-Leu-Arg(Me)-Trp-NH2] (Ac-[dY][Pro(4,4-F2)]NTF[azaGly]L[Arg(Me)]W-NH2), the pEC50 was 11.15.
For the compound `CNC(=N)NCCC[C@H](NC(=O)[C@H](CC(C)C)NC(=O)NNC(=O)[C@H](Cc1ccccc1)NC(=O)[C@@H](NC(=O)[C@H](CC(N)=O)NC(=O)[C@@H]1C[C@@H](O)CN1C(=O)[C@@H](Cc1ccc(O)cc1)NC(C)=O)[C@@H](C)O)C(=O)N[C@@H](Cc1ccc2ccccc2c1)C(N)=O` [YA-81, Ac-D-Tyr-Hyp-Asn-Thr-Phe-azaGly-Leu-Arg(Me)-2Nal-NH2] (Ac-[dY][Hyp]NTF[azaGly]L[Arg(Me)][2Nal]-NH2), the pEC50 is 10.96.
For `CNC(=N)NCCC[C@H](NC(=O)[C@H](CC(C)C)N(C)C(=O)CCNC(=O)[C@H](Cc1ccccc1)NC(=O)[C@@H](NC(=O)[C@H](CC(N)=O)NC(=O)[C@@H]1C[C@@H](O)CN1C(=O)[C@@H](Cc1ccc(O)cc1)NC(C)=O)[C@@H](C)O)C(=O)N[C@@H](Cc1c[nH]c2ccccc12)C(N)=O` [YA-82, Ac-(D-Tyr)-Hyp-Asn-Thr-Phe-BetaAla-(NMe-Leu)-Arg(Me)-Trp-NH2] (Ac-[dY][Hyp]NTF[βAla][NMeL][Arg(Me)]W-NH2), the pEC50 is 8.55.
On to `CNC(=N)NCCC[C@H](NC(=O)[C@H](CC(C)C)NC(=O)NNC(=O)[C@H](Cc1ccccc1)NC(=O)[C@@H](NC(=O)[C@H](CC(N)=O)NC(=O)[C@@H]1C[C@@H](N)CN1C(=O)[C@@H](Cc1ccc(O)cc1)NC(C)=O)[C@@H](C)O)C(=O)N[C@@H](Cc1c[nH]c2ccccc12)C(N)=O` [YA-83, Ac-D-Tyr-Pro(4-NH2)-Asn-Thr-Phe-azaGly-Leu-Arg(Me)-Trp-NH2] (Ac-[dY][Pro(4R-NH2)]NTF[azaGly]L[Arg(Me)]W-NH2), for which the pEC50 was 11.10.
Turning to `CNC(=N)NCCC[C@H](NC(=O)[C@H](CC(C)C)NC(=O)NNC(=O)[C@H](Cc1ccccc1)NC(=O)[C@@H](NC(=O)[C@H](CC(N)=O)NC(=O)[C@@H]1CCCCN1C(=O)[C@@H](Cc1ccc(O)cc1)NC(C)=O)[C@@H](C)O)C(=O)N[C@@H](Cc1c[nH]c2ccccc12)C(N)=O` [YA-85, Ac-D-Tyr-(S-Pip)-Asn-Thr-Phe-azaGly-Leu-Arg(Me)-Trp-NH2] (Ac-[dY][Pip]NTF[azaGly]L[Arg(Me)]W-NH2), the pEC50 is 10.59.

Still in this assay, the particulars now being: NFAT-bla CHO-K1 cells that express human kiss1 receptor (GPR54); FRET; cells cultured with compound for 4 hours; read-out: GPR54 EC50/nM.
Take `CC(=O)N[C@@H](Cc1ccc(O)cc1)C(=O)N[C@@H](CC(N)=O)C(=O)N[C@@H](Cc1c[nH]c2ccccc12)C(=O)N[C@@H](CC(N)=O)C(=O)N[C@@H](CO)C(=O)N[C@@H](Cc1ccccc1)C(=O)NCC(=O)N[C@@H](CC(C)C)C(=O)N[C@@H](CCCNC(=N)N)C(=O)N[C@@H](Cc1ccccc1)C(N)=O` [YA-2, Ac-Tyr-Asn-Trp-Asn-Ser-Phe-Gly-Leu-Arg-Phe-NH2]: the EC50 was determined as 2.11 nM.

Staying with this assay, now noted: Preliminary measurement data (GPR54) EC50, nM), GPR54; measured according to the method of effect Embodiment 1; preliminary data.
`CNC(=N)NCCC[C@H](NC(=O)[C@H](CC(C)C)NC(=O)NNC(=O)[C@H](Cc1ccccc1)NC(=O)[C@@H](NC(=O)[C@H](CC(N)=O)NC(=O)[C@@H]1C[C@@H](O)CN1C(=O)[C@H](CNc1ccc([N+](=O)[O-])cc1[N+](=O)[O-])NC(C)=O)[C@@H](C)O)C(=O)N[C@@H](Cc1c[nH]c2ccccc12)C(N)=O` [YA-41, Ac-Dap(Dnp)-Hyp-Asn-Thr-Phe-azaGly-Leu-Arg(Me)-Trp-NH2] (Ac-[Dap](Dnp)[Hyp]NTF[azaGly]L[Arg(Me)]W-NH2) displayed an EC50 of 0.095 nM.

One may read the pEC50 as the EC50 on a negative log10 scale, so that one unit is a factor of ten.
